Reference: BindingDB's records for doi:10.2165/00003495-200262180-00006 (Adis International, 2002)

Biological target: Prostaglandin G/H synthase 1 (Homo sapiens, UniProt P23219)
Sequence (P23219 whole entry): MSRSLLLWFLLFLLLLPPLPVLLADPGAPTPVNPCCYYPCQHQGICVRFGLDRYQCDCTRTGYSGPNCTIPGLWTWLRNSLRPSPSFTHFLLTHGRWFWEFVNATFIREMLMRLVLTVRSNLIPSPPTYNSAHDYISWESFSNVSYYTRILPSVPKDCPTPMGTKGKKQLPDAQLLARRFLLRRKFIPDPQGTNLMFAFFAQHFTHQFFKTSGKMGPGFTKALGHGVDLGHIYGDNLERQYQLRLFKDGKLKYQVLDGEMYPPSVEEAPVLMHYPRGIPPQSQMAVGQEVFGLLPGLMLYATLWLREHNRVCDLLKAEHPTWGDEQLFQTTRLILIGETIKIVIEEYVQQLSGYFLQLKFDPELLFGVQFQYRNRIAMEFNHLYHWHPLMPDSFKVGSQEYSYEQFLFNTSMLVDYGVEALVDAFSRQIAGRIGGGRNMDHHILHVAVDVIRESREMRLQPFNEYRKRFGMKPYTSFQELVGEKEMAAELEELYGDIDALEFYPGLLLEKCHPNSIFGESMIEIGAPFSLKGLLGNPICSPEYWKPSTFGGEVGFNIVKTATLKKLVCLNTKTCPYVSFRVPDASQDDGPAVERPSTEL

Ki: > 10 µM
SMILES: Cc1ccc(-c2ncc(Cl)cc2-c2ccc(S(C)(=O)=O)cc2)cn1
